# Patent US12351565B2, “Aromatic compound and preparation method therefor and use thereof” (SHANGHAI JIANHE PHARMACEUTICAL & TECHNOLOGY CO. LTD., priority 2018, dated 2025)
# What was measured:
# [1] = Distribution in mouse brain tissue; format: in vivo, C57 mice
# Description: Healthy male C57 mice were randomly divided into groups with 3 mice in each group, and the test compound was administrated intragastrically. See Table 10 below for specific arrangements:
# Each test compound was dissolved in physiological saline to prepare a certain concentration of solution for administration.
# One day before administration, the mice were fasted and allowed to drink freely for 12-14 h. The mice were fed 4 h after administration.
# After the animals were bled, the brain tissue was collected. After washing, 50% ice methanol was added for homogenate at 1:4 (m/v). The collection time points was 10 min, 15 min, 30 min, 1 h, 2 h after administration of the test substance; 30.0 μL of tissue sample was taken (the sample was taken out from the refrigerator at −80° C., vortexed for 30 seconds after natural melting at room temperature) and added into a 1.5 mL centrifuge tube. 300.0 μL internal standard solution (30 ng/mL […] acetonitrile solution) was added, the mixture was vortex for 60 seconds and then centrifuged for 3 minutes (centrifugal force was 12000 rpm); 75 μL of the supernatant was taken and transferred to 96-well injection plate loaded with equal volume of water, shaken and mixed well, and subjected to LC-MS/MS analysis, wherein injection volume was 10 μL.
# hERG potassium channel = target: T1, hERG potassium channel (Homo sapiens, UniProt Q12809); test: hERG potassium channel inhibition experiment (automatic patch clamp, CHO-hERG cells); format: cell-based; details: Qpatch, highest tested concentration 40 μM, read-out: IC50, blocking effect on the hERG potassium current
# T1 construct: expressed in transfected cells
# Description: Fully automatic patch clamps were used to test the blocking effect of the compounds of the present invention on the hERG potassium current on a stable cell line transfected with hERG potassium channels.
# CHO-hERG cells were cultured in 175 cm^2 culture flask. When the cell grew to 60-80% confluence, the culture medium was removed. The cells were washed with 7 ml PBS (Phosphate Buffered Saline) once, and then 3 ml Detachin was added to digest.
# After the digestion was completed, 7 ml culture medium was added to neutralize. The mixture was centrifuged, and after the supernatant was removed, 5 ml culture medium was added to resuspend to ensure the cell density was 2×10^6-5×10^6/ml.
# Single-cell high-impedance sealing and whole-cell mode formation were all automatically completed by using the Qpatch instrument. After the recording mode was obtained, the cell was clamped at −80 millivolts. Before +40 millivolt depolarization stimulation for 5 seconds was given, −50 millivolt pre-voltage for 50 millisecond was first given, then repolarized to −50 millivolt for 5 seconds, and then returned to −80 millivolt. This voltage stimulus was applied every 15 seconds. After recording for 2 min, extracellular fluid was given, and recording was conducted for 5 min, and then the dosing process started. The compound concentration started from the lowest test concentration, and each test concentration was given for 2.5 min. […] At least 3 cells per concentration (n≥3) were tested.
# 20 mM compound mother liquor was diluted with extracellular fluid. 5 μL of 20 mM compound mother liquor was taken and added into 2495 μL extracellular fluid, so that it was diluted 500 times to 40 μM, and was then serially diluted 3 times in an extracellular fluid containing 0.2% DMSO to obtain the final concentration to be tested.
# The highest tested concentration was 40 μM, and the concentrations were in order as follows: 40, 13.33, 4.44, 1.48, 0.49, 0.16 μM, totally 6 concentrations.
# Experimental data were analyzed by XLFit software.
# T1 sequence (Q12809 whole entry): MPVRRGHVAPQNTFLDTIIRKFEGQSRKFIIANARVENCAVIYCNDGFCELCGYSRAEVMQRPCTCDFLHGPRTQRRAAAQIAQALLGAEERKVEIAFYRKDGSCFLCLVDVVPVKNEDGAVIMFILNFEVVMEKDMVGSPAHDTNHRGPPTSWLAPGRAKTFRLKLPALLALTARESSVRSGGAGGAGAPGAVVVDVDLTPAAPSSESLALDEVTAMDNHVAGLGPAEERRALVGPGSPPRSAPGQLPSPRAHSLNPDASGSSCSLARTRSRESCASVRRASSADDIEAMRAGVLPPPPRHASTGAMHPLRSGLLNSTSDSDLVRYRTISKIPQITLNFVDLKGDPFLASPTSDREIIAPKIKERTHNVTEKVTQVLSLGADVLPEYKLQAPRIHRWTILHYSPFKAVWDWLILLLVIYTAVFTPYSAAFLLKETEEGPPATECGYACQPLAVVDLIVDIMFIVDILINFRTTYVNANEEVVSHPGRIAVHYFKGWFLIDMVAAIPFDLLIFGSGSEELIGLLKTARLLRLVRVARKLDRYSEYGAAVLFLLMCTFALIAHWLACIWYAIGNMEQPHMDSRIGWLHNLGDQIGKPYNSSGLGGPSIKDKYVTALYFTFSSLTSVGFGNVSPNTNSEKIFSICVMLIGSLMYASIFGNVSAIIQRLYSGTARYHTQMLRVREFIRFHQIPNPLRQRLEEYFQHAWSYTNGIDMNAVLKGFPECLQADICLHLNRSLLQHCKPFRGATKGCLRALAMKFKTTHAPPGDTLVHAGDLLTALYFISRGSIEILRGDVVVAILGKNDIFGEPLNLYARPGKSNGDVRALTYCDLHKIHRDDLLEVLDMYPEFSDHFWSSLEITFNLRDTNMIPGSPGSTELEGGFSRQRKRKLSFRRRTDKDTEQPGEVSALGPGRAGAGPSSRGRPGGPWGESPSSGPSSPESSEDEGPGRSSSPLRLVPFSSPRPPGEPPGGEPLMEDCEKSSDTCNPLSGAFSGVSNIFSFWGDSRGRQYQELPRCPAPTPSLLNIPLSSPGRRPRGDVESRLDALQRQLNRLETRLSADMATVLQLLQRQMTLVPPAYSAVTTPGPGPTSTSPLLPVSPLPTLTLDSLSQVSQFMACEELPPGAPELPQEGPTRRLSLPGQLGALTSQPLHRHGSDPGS
structure (smiles),measurement,setting,value
"Cl.N[C@]1(c2ccc(C(F)(F)F)cc2)CCC[C@H](O)C1=O [Compound 51, (2S,6S)-2-amino-6-hydroxy-2-(4-(trifluoromethyl)phenyl)cyclohexane-1-one hydrochloride]",AUC0-∞,"[1]; C57 mouse brain tissue, 20 mg/kg p.o.",46324 ng·h/g
same,concentration at 15 min,"[1]; male, brain, po, C57 mouse, 10 mg/kg p.o., 15 min",5090 ng/g
same,concentration at 10 min,"[1]; male, brain, po, C57 mouse, 20 mg/kg p.o. (intragastrically), 10 min",23500 ng/g
same,half-life,"[1]; male, po, C57 mouse brain tissue, 20 mg/kg p.o.",1.36 h
same,IC50,hERG potassium channel,> 40 µM
